Assay results from patent publication US9469615B2, “Quinoxalines and AZA-quinoxalines as CRTH2 receptor modulators” (Merck Sharp & Dohme Corp., priority 2010, dated 2016).

Biological target: T1, hCRTH2 (Homo sapiens, UniProt Q9Y5Y4)
T1 construct: expressed in transfected cells; host or cells: HEK (human embryonic kidney) cells expressing hCRTH2; membrane preparation
T1 sequence (Q9Y5Y4 1-395): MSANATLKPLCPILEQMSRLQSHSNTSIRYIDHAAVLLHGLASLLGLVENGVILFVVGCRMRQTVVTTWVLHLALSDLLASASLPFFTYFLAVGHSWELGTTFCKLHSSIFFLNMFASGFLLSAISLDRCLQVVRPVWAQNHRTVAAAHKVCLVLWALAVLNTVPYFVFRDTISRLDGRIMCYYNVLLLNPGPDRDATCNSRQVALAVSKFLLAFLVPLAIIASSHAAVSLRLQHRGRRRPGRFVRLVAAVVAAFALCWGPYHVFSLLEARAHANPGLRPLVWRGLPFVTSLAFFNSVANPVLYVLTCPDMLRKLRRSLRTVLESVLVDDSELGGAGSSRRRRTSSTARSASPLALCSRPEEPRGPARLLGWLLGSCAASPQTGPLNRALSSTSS
Experiment: Radioligand binding assay ([3H]PGD2 competition, HEK-hCRTH2 membranes)
Conditions: [3H]PGD2 binding
Summary of the method: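 Displacement of 3.0 nM [3H]PGD2 from human CRTH2 expressed in HEK membranes was measured at room temperature over 60 min. Unlabelled PGD2 at 10 μM gave non-specific binding.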

Row | SMILES | Ki (rated A-E (Table A)) | Ki (values in text)
1 | C[C@@H](NC(=O)c1ccc2nc(-c3ccc(Cl)cc3)c(CCc3cccc(CC(=O)O)c3)nc2c1)c1ccc(F)cc1 [19G, 3-[2-[3-(4-chlorophenyl)-7-[[[1(R)-(4-fluorophenyl)ethyl]amino]carbonyl]-2-quinaxalinyl]ethyl] benzeneacetic acid] | 2.1 to 20 nM | 
2 | C[C@H](NC(=O)c1ccc2nc(-c3ccc(Cl)cc3)c(CCc3cccc(CC(=O)O)c3)nc2c1)c1ccc(F)cc1 [19H, 3-[2-[3-(4-chlorophenyl)-7-[[[1(S)-(4-fluorophenyl)ethyl]amino]carbonyl]-2-quinoxalinyl]ethyl] benzeneacetic acid] | 2.1 to 20 nM | 
3 | O=C(O)Cc1cccc(CCc2nc3cc(C(=O)N[C@@H](c4ccccc4)C(F)(F)F)ccc3nc2-c2ccc(Cl)cc2)c1 [19J, 3-[2-[3-(4-chlorophenyl)-7-[[(2,2,2-trifluoro-1(S)-phenylethyl)amino]carbonyl]-2-quinoxalinyl]ethyl]benzeneacetic acid] | 20.1 to 200 nM | 
4 | O=C(O)Cc1cccc(CCc2nc3cc(C(=O)N4CC(c5ccccc5)C4)ccc3nc2-c2ccc(Cl)cc2)c1 [19K, 3-[2-[3-(4-chlorophenyl)-7-[(3-phenyl-1-azetidinyl)carbonyl]-2-quinoxalinyl]ethyl] benzeneacetic acid] | 2.1 to 20 nM | 
5 | O=C(O)Cc1cccc(CCc2nc3cc(C(=O)NCc4cccc(Cl)c4)ccc3nc2-c2ccc(Cl)cc2)c1 [19i, 3-[2-[3-(4-chlorophenyl)-7-[[[(3-chlorophenyl)methyl]amino]carbonyl]-2-quinoxalinyl]ethyl] benzeneacetic acid] | 2.1 to 20 nM | 
6 | C[C@@H](c1ccccc1)N(C)C(=O)c1ccc2nc(-c3ccc(F)cc3)c(CCCCC(=O)O)nc2c1 [21C, -(4-fluorophenyl)-7-[[methyl(1(S)-phenylethyl)amino]carbonyl]-2-quinoxalinepentanoic acid] | 2.1 to 20 nM | 
7 | O=C(NCc1cccc(Cl)c1)c1ccc2nc(-c3ccccc3)c(CCCCc3nnn[nH]3)nc2c1 [22D, N-[(3-chlorophenyl)methyl]-2-phenyl-3-[4-(1H-tetrazol-5-yl)butyl]-6-quinoxalinecarboxamide] | 20.1 to 200 nM | 
8 | O=C(O)CCCCc1nc2cc(C(=O)N3CC[C@@H](c4ccccc4)C3)c(F)cc2nc1-c1ccc(F)cc1 [24H, 6-fluoro-3-(4-fluorophenyl)-7-[(3(S)-phenyl-1-pyrrolidinyl)carbonyl]-2-quinoxalinepentanoic acid] | 2.1 to 20 nM | 
9 | O=C(O)CCCCc1nc2cc(C(=O)N3CC[C@@H](c4ccccc4)C3)c(F)cc2nc1-c1ccccc1 [24i, 6-fluoro-3-phenyl-7-[(3(S)-phenyl-1-pyrrolidinyl)carbonyl]-2-quinoxalinepentanoic acid] | 2.1 to 20 nM | 

The remaining lines, values ahead:

Row | Ki (rated A-E (Table A)) | Ki (values in text) | SMILES
10 | 0.1 to 2 nM |  | O=C(O)CCCCc1nc2cc(C(=O)N3CCC(c4ccccc4)CC3)ccc2nc1-c1ccc(C(F)(F)F)cc1Cl [26AA, 3-[2-chloro-4-(trifluoromethyl)phenyl]-7-[(4-phenyl-1-piperidinyl)carbonyl]-2-quinoxalinepentanoic acid]
11 | 0.1 to 2 nM |  | O=C(O)CCCCc1nc2cc(C(=O)N3CCC(c4ccccc4)CC3)ccc2nc1-c1ccc(Br)cc1 [26AB, 3-(4-bromophenyl)-7-[(4-phenyl-1-piperidinyl)carbonyl]-2-quinoxalinepentanoic acid]
12 | 2.1 to 20 nM |  | O=C(O)CCCCc1nc2cc(C(=O)N3CCC(c4ccccc4)C3)ccc2nc1-c1cccc(F)c1 (stereo not shown) [26E, 3-(3-fluorophenyl)-7-[(3-phenyl-1-pyrrolidinyl)carbonyl]-2-quinoxalinepentanoic acid]
13 | 2.1 to 20 nM |  | O=C(O)CCCCc1nc2cc(C(=O)N3CCC(c4ccccc4)C3)ccc2nc1-c1cccc(Cl)c1 (stereo not shown) [26F, 3-(3-chlorophenyl)-7-[(3-phenyl-1-pyrrolidinyl)carbonyl]-2-quinoxalinepentanoic acid]
14 | 2.1 to 20 nM |  | O=C(O)CCCCc1nc2cc(C(=O)N3CCC(c4ccccc4)C3)ccc2nc1-c1cc(Cl)cc(Cl)c1 (stereo not shown) [26G, 3-(3,5-dichlorophenyl)-7-[(3-phenyl-1-pyrrolidinyl)carbonyl]-2-quinoxalinepentanoic acid]
15 | 2.1 to 20 nM |  | O=C(O)CCCCc1nc2cc(C(=O)N3CCC(c4ccccc4)C3)ccc2nc1-c1ccc(F)cc1F (stereo not shown) [26H, 3-(2,4-difluorophenyl)-7-[(3-phenyl-1-pyrrolidinyl)carbonyl]-2-quinoxalinepentanoic acid]
16 | 0.1 to 2 nM |  | O=C(O)CCCCc1nc2cc(C(=O)N3CCC(c4ccccc4)CC3)ccc2nc1-c1cccc(Cl)c1 [26J, 3-(3-chlorophenyl)-7-[(4-phenyl-1-piperidinyl)carbonyl]-2-quinoxalinepentanoic acid]
17 | 2.1 to 20 nM |  | O=C(O)CCCCc1nc2cc(C(=O)N3CCC(c4ccccc4)CC3)ccc2nc1-c1ccc(C(F)(F)F)nc1 [26K, 7-[(4-phenyl-1-piperidinyl)carbonyl]-3-[6-(trifluoromethyl)-3-pyridinyl]-2-quinoxalinepentanoic acid]
18 | 2.1 to 20 nM |  | O=C(O)CCCCc1nc2cc(C(=O)N3CCC(c4ccccc4)CC3)ccc2nc1-c1ccccc1Cl [26L, 3-(2-chlorophenyl)-7-[(4-phenyl-1-piperidinyl)carbonyl]-2-quinoxalinepentanoic acid]
19 | 2.1 to 20 nM |  | O=C(O)CCCCc1nc2cc(C(=O)N3CCC(c4ccccc4)CC3)ccc2nc1-c1cccnc1 [26M, 7-[(4-phenyl-1-piperidinyl)carbonyl]-3-(3-pyridinyl)-2-quinoxalinepentanoic acid]
20 | 0.1 to 2 nM |  | O=C(O)CCCCc1nc2cc(C(=O)N3CCC(c4ccccc4)CC3)ccc2nc1-c1ccc(OC(F)(F)F)cc1 [26N, 7-[(4-phenyl-1-piperidinyl)carbonyl]-3-[4-(trifluoromethoxy)phenyl]-2-quinoxalinepentanoic acid]
21 | 2.1 to 20 nM |  | N#Cc1ccc(-c2nc3ccc(C(=O)N4CCC(c5ccccc5)CC4)cc3nc2CCCCC(=O)O)cc1 [26P, 3-(4-cyanophenyl)-7-[(4-phenyl-1-piperidinyl)carbonyl]-2-quinoxalinepentanoic acid]
22 | 20.1 to 200 nM | 96.7 nM | O=C(O)CCCCc1nc2cc(C(=O)N3CCC(c4ccccc4)CC3)ccc2nc1-c1cncnc1 [26Q, 7-[(4-phenyl-1-piperidinyl)carbonyl]-3-(5-pyrimidinyl)-2-quinoxalinepentanoic acid]
23 | 20.1 to 200 nM |  | O=C(O)CCCCc1nc2cc(C(=O)N3CCC(c4ccccc4)CC3)ccc2nc1-c1cncc(Cl)c1 [26R, 3-(5-chloro-3-pyridinyl)-7-[(4-phenyl-1-piperidinyl)carbonyl]-2-quinoxalinepentanoic acid]
24 | 0.1 to 2 nM |  | O=C(O)CCCCc1nc2cc(C(=O)N3CCC(c4ccccc4)CC3)ccc2nc1-c1ccsc1 [26S, 7-[(4-phenyl-1-piperidinyl)carbonyl]-3-(3-thienyl)-2-quinoxalinepentanoic acid]
25 | 2.1 to 20 nM |  | Cn1cc(-c2nc3ccc(C(=O)N4CCC(c5ccccc5)CC4)cc3nc2CCCCC(=O)O)cn1 [26T, 3-(1-methyl-1H-pyrazol-4-yl)-7-[(4-phenyl-1-piperidinyl)carbonyl]-2-quinoxalinepentanoic acid]
26 | 2.1 to 20 nM |  | CC(=O)c1ccccc1-c1nc2ccc(C(=O)N3CCC(c4ccccc4)CC3)cc2nc1CCCCC(=O)O [26U, 3-(2-acetylphenyl)-7-[(4-phenyl-1-piperidinyl)carbonyl]-2-quinoxalinepentanoic acid]
27 | 0.1 to 2 nM |  | COc1cc(C(F)(F)F)ccc1-c1nc2ccc(C(=O)N3CCC(c4ccccc4)CC3)cc2nc1CCCCC(=O)O [26V, 3-[2-methoxy-4-(trifluoromethyl)phenyl]-7-[(4-phenyl-1-piperidinyl)carbonyl]-2-quinoxalinepentanoic acid]
